From PubChem BioAssay (NCI)
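1) Cells in 96-well plates. 2) Compound, 48 h, 5 concentrations. 3) Linear interpolation between surrounding doses. 4) Unreached endpoint = highest concentration. GI50: concentration for 50% inhibition of growth. TGI denotes the concentration required for complete inhibition of growth.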

Legend:
Assay in all cases: NCI-60 cell line screen, 48 h
SNB-75 CNS = test system: SNB-75 CNS
SK-MEL-5 melanoma = test system: SK-MEL-5 melanoma
HCC-2998 colon = test system: HCC-2998 colon
RXF 393 renal = test system: RXF 393 renal
IGROV1 ovarian = test system: IGROV1 ovarian
TK-10 renal = test system: TK-10 renal
OVCAR-4 ovarian = test system: OVCAR-4 ovarian
DU-145 prostate = test system: DU-145 prostate
UO-31 renal = test system: UO-31 renal
HS 578T breast = test system: HS 578T breast

Structure (SMILES) | TGI (SNB-75 CNS) [µM] | TGI (SK-MEL-5 melanoma) [µM] | TGI (HCC-2998 colon) [µM] | TGI (RXF 393 renal) [µM] | TGI (IGROV1 ovarian) [µM] | TGI (TK-10 renal) [µM] | TGI (OVCAR-4 ovarian) [µM] | GI50 (SNB-75 CNS) [µM] | GI50 (SK-MEL-5 melanoma) [µM] | GI50 (DU-145 prostate) [µM] | TGI (DU-145 prostate) [µM] | GI50 (HCC-2998 colon) [µM] | GI50 (RXF 393 renal) [µM] | GI50 (IGROV1 ovarian) [µM] | GI50 (TK-10 renal) [µM] | GI50 (UO-31 renal) [µM] | TGI (UO-31 renal) [µM] | GI50 (OVCAR-4 ovarian) [µM] | GI50 (HS 578T breast) [µM] | TGI (HS 578T breast) [µM]
C/C(=N\NC(N)=S)c1ccc(Oc2ccccc2)cc1 | 33.6 | 18.8 | 28.7 | 26.2 | 12.5 | 21.8 | 16.8 |  |  |  |  |  |  |  |  |  |  |  |  | 
CCn1nc(C#Cc2c(C)ccc3c(Nc4ccc(Cl)cc4)nccc23)c2c(N)ncnc21 | 44 | 6.55 | > 100 | 8.98 | > 100 | > 100 | 53.5 | 3.12 | 2.14 | 5.74 | > 100 | 7.57 | 2.63 | 3.09 | 6.39 | 2.09 | > 100 | 6.16 |  | 
O=C(c1ccco1)c1c(C(F)(F)F)n([O-])c2cc(Cl)c(Cl)cc2[n+]1=O | 13.6 | 1.45 | 1.26 |  | 2.53 | 1.73 | 12.7 | 6.16 | 0.727 | 0.787 | 2.03 | 0.606 |  | 0.113 | 0.943 | 0.0465 | 0.211 | 4.17 | 0.706 | 1.98
CC[C@H]1CNC(=O)CC1CC(=O)OC (some centres undefined) | > 100 | > 100 | > 100 | > 100 | > 100 | > 100 | > 100 |  |  |  |  |  |  |  |  |  | > 100 |  |  | 
O=c1[nH]c2c(ccc3cnccc32)c2c1CCC2 | 1.4 | 0.517 | 1.91 |  | 0.923 |  | > 100 | 0.324 | 0.196 | 0.376 | > 100 | 0.356 |  | 0.258 | 0.331 | 0.243 | 0.67 | 0.726 | 0.247 | 0.808
O=P(c1ccccc1)(c1ccccc1)C1CC=C2CCCCCC2C1 (centres undefined) | 62.7 | 46.1 |  | 72.6 | > 100 | > 100 | 67.4 |  |  |  |  |  |  |  |  |  | 52.7 |  |  | 
c1c[nH]c(CN2CCN(Cc3ncc[nH]3)CC2)n1 | > 100 | > 100 |  | > 100 | > 100 | > 100 | > 100 |  |  |  | > 100 |  |  |  |  |  | > 100 |  |  | > 100
O=C(c1ccccc1)N1CCc2c([nH]c3ccccc23)C1 | > 100 | 47.6 | > 100 |  | > 100 | > 100 | > 100 |  |  |  |  |  |  |  |  |  | 99.2 |  |  | 
O=C1N(c2ccccc2)C2(O)C(=O)c3ccccc3C2(O)N1c1ccccc1 (centres undefined) | > 100 | > 100 | > 100 | > 100 | > 100 | > 100 | > 100 |  |  |  |  |  |  |  |  |  | > 100 |  |  | 
COc1cc(Br)c(C2OCCCO2)cc1OCc1ccccc1 | > 100 | > 100 |  | > 100 | > 100 | > 100 | > 100 |  |  |  |  |  |  |  |  |  | > 100 |  |  | 
CCOc1ccc(/C=C/C(=O)c2sc(NNC(C)=O)nc2C)cc1 | > 100 | > 100 | > 100 | > 100 | > 100 | > 100 |  |  |  |  |  |  |  |  |  |  | > 100 |  |  | 
O=C(N=Nc1c(O)[nH]c2c(Cl)cc(Cl)cc12)C(=O)Nc1cccc(C(F)(F)F)c1 | > 100 | > 100 | > 100 | > 100 | > 100 | > 100 | > 100 |  |  |  |  |  |  |  |  |  | > 100 |  |  | > 100
COC(=O)[C@@H](C)C[C@H](Cc1ccccc1)NC(=O)c1nc([C@@H](C[C@H](C(C)C)N(C)C(=O)[C@@H](NC(=O)[C@H]2CC(=O)CCN2C)C(C)C)OC(C)=O)sc1C(C)C | > 15 | 1.76 | > 16 |  | > 13.5 | > 16.7 | > 16.7 | 0.0518 | 0.0869 | 0.115 | > 5.55 | 0.141 |  | 0.111 | 1.43 | 0.951 | > 10.5 | 1.34 | 0.16 | > 3.85
O=C(CC1(O)C(=O)Nc2ccc(Br)cc21)c1cccc([N+](=O)[O-])c1 (centres undefined) | 97.2 |  | > 100 | 83.8 |  | > 100 | 67.1 |  |  |  |  |  |  |  |  |  | > 100 |  |  | 
CCc1cccc(CC)c1NC1=CC(=O)C(=O)c2ccccc21 | 49.3 | 21.6 | 28.8 | 45.2 | 28.9 | 56.3 | 27.8 |  |  |  |  |  |  |  |  |  | 46.9 |  |  | 
